Source: ChEMBL document CHEMBL1201862, “PubChem BioAssay data set” (2004)
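Cultured in 96-well plates, cells were exposed to test compound for 48 hours across five concentrations. GI50 = concentration required for 50% inhibition of growth.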 Activity calls are given as the source filed them. Rule as the data show it: active = GI50 up to about 1.1 µM and inactive = higher.

Experiments:
Assay in all cases: NCI-60 cell line screen, 48 h
786-0 = system: 786-0
A549 = system: A549
ACHN = system: ACHN
DU-145 = system: DU-145
EKVX = system: EKVX
HCT-116 = system: HCT-116
HCT-15 = system: HCT-15
IGROV-1 = system: IGROV-1
MCF7 = system: MCF7
MDA-N = system: MDA-N
NCI-H226 = system: NCI-H226
NCI-H23 = system: NCI-H23
NCI-H522 = system: NCI-H522
OVCAR-8 = system: OVCAR-8
SK-MEL-28 = system: SK-MEL-28
SN12C = system: SN12C
SNB-75 = system: SNB-75
U-251 = system: U-251
UACC-62 = system: UACC-62
MDA-MB-435 = system: MDA-MB-435

Row | Compound | GI50 (786-0) | GI50 (A549) | GI50 (ACHN) | GI50 (DU-145) | GI50 (EKVX) | GI50 (HCT-116) | GI50 (HCT-15) | GI50 (IGROV-1) | GI50 (MCF7) | GI50 (MDA-N) | GI50 (NCI-H226) | GI50 (NCI-H23) | GI50 (NCI-H522) | GI50 (OVCAR-8) | GI50 (SK-MEL-28) | GI50 (SN12C) | GI50 (SNB-75) | GI50 (U-251) | GI50 (UACC-62) | GI50 (MDA-MB-435)
1 | NC(=O)c1cccc(OCC(O)CO)c1 (stereo not given) | > 100 µM (inactive) | > 100 µM (inactive) | > 100 µM (inactive) | > 100 µM (inactive) | > 100 µM (inactive) | > 100 µM (inactive) | > 100 µM | > 100 µM (inactive) | > 100 µM (inactive) | > 100 µM (inactive) | > 100 µM (inactive) | > 100 µM (inactive) | > 100 µM (inactive) | > 100 µM (inactive) | > 100 µM (inactive) | > 100 µM (inactive) | > 100 µM (inactive) | > 100 µM (inactive) | > 100 µM (inactive) | 
2 | N#Cc1c(-c2ccc([N+](=O)[O-])cc2)c(C#N)c(=O)n(NS(=O)(=O)c2ccccc2)c1-c1ccccc1 | > 100 µM (inactive) | > 100 µM (inactive) | > 100 µM (inactive) |  | > 100 µM (inactive) | > 100 µM (inactive) | > 100 µM | > 100 µM (inactive) | > 100 µM (inactive) |  | > 100 µM (inactive) |  | > 100 µM (inactive) | > 100 µM (inactive) | > 100 µM (inactive) | > 100 µM (inactive) | > 100 µM (inactive) | > 100 µM (inactive) | > 100 µM (inactive) | > 100 µM (inactive)
3 | CC(C)(C)c1ccc(/C=N/NC(=O)CSCC(=O)N/N=C/c2ccc(C(C)(C)C)cc2)cc1 | 1.95 µM (inactive) | 2.86 µM (inactive) | 2.93 µM (inactive) | 5.83 µM (inactive) | 2.65 µM (inactive) | 2.03 µM (inactive) | 4.14 µM | 0.64 µM (active) | 2.28 µM (inactive) |  | 2.09 µM (inactive) | 2.5 µM (inactive) | 4.47 µM (inactive) | 2.63 µM (inactive) | 6.17 µM (inactive) | 1.77 µM (inactive) | 5.32 µM (inactive) | 1.61 µM (inactive) | 16.4 µM (inactive) | 
4 | Cc1cccc(/C=C2/C(=O)Nc3ccccc32)n1 | 13 µM (inactive) |  | 10.3 µM (inactive) | 13.2 µM (inactive) | 16.8 µM (inactive) | 12.2 µM (inactive) | 13.3 µM |  | 5.79 µM (inactive) |  |  | 10.4 µM (inactive) | 12.7 µM (inactive) | 23.3 µM (inactive) | 24.2 µM (inactive) |  | 28.8 µM (inactive) | 15.7 µM (inactive) |  | 16.7 µM (inactive)
5 | O=c1c(S(=O)(=O)Oc2ccccc2)coc2cc(F)ccc12 | > 100 µM (inactive) | > 100 µM (inactive) | > 100 µM (inactive) |  | > 100 µM (inactive) | > 100 µM (inactive) | > 100 µM | > 100 µM (inactive) | 74.8 µM (inactive) | > 100 µM (inactive) | 17.4 µM (inactive) | 82.2 µM (inactive) | > 100 µM (inactive) | > 100 µM (inactive) | > 100 µM (inactive) | > 100 µM (inactive) | 30.9 µM (inactive) | > 100 µM (inactive) | 60 µM (inactive) | > 100 µM (inactive)
6 | COC(=O)N/N=C(\C)C(CN1CCCCC1)C(C1=C(O)c2ccccc2OC1)c1ccccc1 (stereo not given) | > 100 µM (inactive) | > 100 µM (inactive) | > 100 µM (inactive) |  | > 100 µM (inactive) | > 100 µM (inactive) | > 100 µM | > 100 µM (inactive) |  |  | > 100 µM (inactive) | > 100 µM (inactive) | > 100 µM (inactive) | > 100 µM (inactive) | > 100 µM (inactive) | > 100 µM (inactive) | 95.7 µM (inactive) | 43.1 µM (inactive) | 86.3 µM (inactive) | 
7 | COCOC1CCCC[C@@]1(OCCOCCO[C@@]1(c2ccccc2)CCCC[C@H]1OCOC)c1ccccc1 (stereo not given in full) | 46.6 µM (inactive) | 99.5 µM (inactive) | 87.7 µM (inactive) |  | 37.8 µM (inactive) | > 100 µM (inactive) | > 10 µM | > 100 µM (inactive) |  |  | > 100 µM (inactive) | > 100 µM (inactive) | > 100 µM (inactive) | > 100 µM (inactive) | > 100 µM (inactive) | > 100 µM (inactive) | 24.4 µM (inactive) | > 100 µM (inactive) | > 100 µM (inactive) | 
8 | O=C(NCC(=O)N1CCOC1=O)OCc1ccccc1 | > 100 µM (inactive) | > 100 µM (inactive) | > 100 µM (inactive) |  | > 100 µM (inactive) | > 100 µM (inactive) | > 100 µM | > 100 µM (inactive) |  |  | > 100 µM (inactive) | > 100 µM (inactive) | > 100 µM (inactive) | > 100 µM (inactive) | > 100 µM (inactive) | > 100 µM (inactive) | > 100 µM (inactive) | > 100 µM (inactive) | > 100 µM (inactive) | 
9 | CN(/N=C/c1ccccn1)C1=NCCN1 | > 100 µM (inactive) | > 100 µM (inactive) | > 100 µM (inactive) |  | > 100 µM (inactive) | > 100 µM (inactive) | > 100 µM | > 100 µM (inactive) | > 100 µM (inactive) | > 100 µM (inactive) | > 100 µM (inactive) | > 100 µM (inactive) | > 100 µM (inactive) | > 100 µM (inactive) | > 100 µM (inactive) |  | > 100 µM (inactive) | > 100 µM (inactive) | > 100 µM (inactive) | > 100 µM (inactive)
10 | COc1cc(O)cc(O)c1C(=O)CC(Cl)(Cl)Cl | > 100 µM (inactive) | > 100 µM (inactive) | > 100 µM (inactive) | > 100 µM (inactive) | > 100 µM (inactive) | > 100 µM (inactive) | > 100 µM | > 100 µM (inactive) | > 100 µM (inactive) |  | > 100 µM (inactive) | > 100 µM (inactive) | > 100 µM (inactive) | > 100 µM (inactive) | > 100 µM (inactive) | > 100 µM (inactive) |  | > 100 µM (inactive) | > 100 µM (inactive) | > 100 µM (inactive)
11 | C=C1CC[C@@H]2C13[C@@H]1[C@H](CC(=O)[C@@]23C)C1(C)C (stereo not given in full) | 55.1 µM (inactive) | 26.4 µM (inactive) | > 100 µM (inactive) | > 100 µM (inactive) |  | > 100 µM (inactive) | > 100 µM | 55.7 µM (inactive) | > 100 µM (inactive) |  | > 100 µM (inactive) | > 100 µM (inactive) | > 100 µM (inactive) | 35.9 µM (inactive) | > 100 µM (inactive) | > 100 µM (inactive) |  | > 100 µM (inactive) | > 100 µM (inactive) | > 100 µM (inactive)
12 | Cc1ccc(NC(=O)CC(=O)N2N=C(N(c3ccccc3)c3ccccc3)CC2c2ccccc2)cc1 (stereo not given) | > 100 µM (inactive) | > 100 µM (inactive) | > 100 µM (inactive) | > 100 µM (inactive) | > 100 µM (inactive) | > 100 µM (inactive) | > 100 µM | > 100 µM (inactive) | > 100 µM (inactive) |  | > 100 µM (inactive) | > 100 µM (inactive) | > 100 µM (inactive) | > 100 µM (inactive) | > 100 µM (inactive) |  | 91.4 µM (inactive) | > 100 µM (inactive) | > 100 µM (inactive) | > 100 µM (inactive)
13 | O=C(CC1=Nc2nnc(CCCCCCCc3nnc4n3C(=O)C(CC(=O)c3ccccc3)=N4)n2C1=O)c1ccccc1 | > 100 µM (inactive) | > 100 µM (inactive) | > 100 µM (inactive) |  | > 100 µM (inactive) | > 100 µM (inactive) | > 100 µM | > 100 µM (inactive) |  |  | > 100 µM (inactive) | > 100 µM (inactive) | > 100 µM (inactive) | > 100 µM (inactive) | > 100 µM (inactive) | > 100 µM (inactive) | > 100 µM (inactive) | > 100 µM (inactive) | > 100 µM (inactive) | 
14 | CCOC(=O)c1nc(C)oc1C(F)(F)F | > 100 µM (inactive) | > 100 µM (inactive) | > 100 µM (inactive) |  | > 100 µM (inactive) | > 100 µM (inactive) | > 100 µM | > 100 µM (inactive) |  |  | > 100 µM (inactive) | > 100 µM (inactive) | > 100 µM (inactive) | > 100 µM (inactive) | > 100 µM (inactive) | > 100 µM (inactive) | > 100 µM (inactive) | > 100 µM (inactive) | > 100 µM (inactive) | 
15 | COc1ccc(/C=N/Nc2nc(=S)[nH]c3[nH]ncc23)cc1 | 43.4 µM (inactive) | 54.3 µM (inactive) | 43.3 µM (inactive) | 36.5 µM (inactive) | 59.4 µM (inactive) | > 100 µM (inactive) | > 100 µM | 25 µM (inactive) | 43.5 µM (inactive) |  | > 100 µM (inactive) | 27.5 µM (inactive) | 26.2 µM (inactive) | > 100 µM (inactive) | 35.2 µM (inactive) | > 100 µM (inactive) | > 100 µM (inactive) | 19.1 µM (inactive) | 31 µM (inactive) | 30.6 µM (inactive)
16 | COCCn1cnc2c(Cl)nc(Nc3ccccc3)nc21 | 69.2 µM (inactive) | 48.8 µM (inactive) | 17.9 µM (inactive) | > 100 µM (inactive) | 21.3 µM (inactive) | 27.7 µM (inactive) | 22.9 µM | 21.2 µM (inactive) | 36.4 µM (inactive) |  | > 100 µM (inactive) | 33.3 µM (inactive) |  | 23.9 µM (inactive) | 36 µM (inactive) | 26.4 µM (inactive) | 68.5 µM (inactive) | 32.7 µM (inactive) | 25.6 µM (inactive) | 18.1 µM (inactive)
